Laboratory results: patent US7732475B2, “Histone deacetylase inhibitors” (Takeda San Diego, Inc., priority 2005, dated 2010)

The molecules below were run against HDAC2 (Homo sapiens, UniProt Q92769) (assay: HDAC2 fluorescence inhibition assay (tBoc-Lys(Ac)-AMC)).
HDAC2, sequence (Q92769 with tags, fused parts or gaps): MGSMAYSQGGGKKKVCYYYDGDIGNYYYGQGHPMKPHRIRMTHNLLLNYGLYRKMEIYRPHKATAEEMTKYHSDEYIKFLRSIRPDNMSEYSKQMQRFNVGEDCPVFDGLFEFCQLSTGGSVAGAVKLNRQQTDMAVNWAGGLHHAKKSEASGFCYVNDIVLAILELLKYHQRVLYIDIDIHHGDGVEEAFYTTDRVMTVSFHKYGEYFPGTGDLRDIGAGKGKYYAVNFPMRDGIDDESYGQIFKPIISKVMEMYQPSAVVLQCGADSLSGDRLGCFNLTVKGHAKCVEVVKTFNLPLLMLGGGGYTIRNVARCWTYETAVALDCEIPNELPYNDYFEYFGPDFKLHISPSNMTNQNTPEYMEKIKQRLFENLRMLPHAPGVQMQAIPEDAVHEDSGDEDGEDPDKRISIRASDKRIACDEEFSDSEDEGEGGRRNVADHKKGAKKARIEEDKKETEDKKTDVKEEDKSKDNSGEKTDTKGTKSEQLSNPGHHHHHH

| SMILES | IC50 |
| --- | --- |
| COC(=O)c1ccc(N)c(NC(=O)c2ccc(Cn3cc4ccccc4n3)cc2)c1 [Example 33, Methyl 3-(4-((2H-indazol-2-yl)methyl)benzamido)-4-aminobenzoate] | ≥ 500 nM |
| Nc1ccc(-c2cccs2)cc1NC(=O)c1ccc(Cn2ncc3c(F)cc(F)cc32)cc1 [Example 113, N-(2-amino-5-(thiophen-2-yl)phenyl)-4-((4,6-difluoro-1H-indazol-1-yl)methyl)benzamide] | 100 to 500 nM |
| CC(Cn1ncc2ccccc21)c1ccc(C(=O)Nc2ccccc2N)cc1 (stereo not shown) [Example 39, 4-(1-(1H-indazol-1-yl)propan-2-yl)-N-(2-aminophenyl)benzamide] | ≥ 500 nM |
| Nc1ccc(-c2cccs2)cc1NC(=O)c1ccc(Cn2cc3c(F)cc(F)cc3n2)cc1 [Example 112, N-(2-amino-5-(thiophen-2-yl)phenyl)-4-((4,6-difluoro-2H-indazol-2-yl)methyl)benzamide] | 100 to 500 nM |
| Cc1ccc2nn(Cc3ccc(C(=O)Nc4ccccc4N)cc3)c(C)c2c1 [Example 81, N-(2-aminophenyl)-4-((3,5-dimethyl-2H-indazol-2-yl)methyl)benzamide] | 50 to 100 nM |
| Cc1c2ccccc2nn1Cc1ccc(C(=O)Nc2ccccc2N)cc1 [Example 29, N-(2-Aminophenyl)-4-((3-methyl-2H-indazol-2-yl)methyl)benzamide] | 50 to 100 nM |
| Cc1c2cc(F)c(F)cc2nn1Cc1ccc(C(=O)Nc2ccccc2N)cc1 [Example 57, N-(2-aminophenyl)-4-((5,6-difluoro-3-methyl-2H-indazol-2-yl)methyl)benzamide] | 50 to 100 nM |
| Nc1ccccc1NC(=O)c1ccc(CNc2cc[nH]n2)cc1 [Example 131, 4-((1H-pyrazol-3-ylamino)methyl)-N-(2-aminophenyl)benzamide] | ≥ 500 nM |
| COc1cccc2cnn(Cc3ccc(C(=O)Nc4ccccc4N)cc3)c12 [Example 84, N-(2-aminophenyl)-4-((7-methoxy-1H-indazol-1-yl)methyl)benzamide] | 100 to 500 nM |
| Nc1ccccc1NC(=O)c1ccc(Cn2cc(C(=O)NCCN3CCOCC3)cn2)cc1 [Example 147, 1-(4-(2-aminophenylcarbamoyl)benzyl)-N-(2-morpholinoethyl)-1H-pyrazole-4-carboxamide] | 50 to 100 nM |
| Nc1ccccc1NC(=O)c1ccc(Cn2cc(C(=O)NCCO)cn2)cc1 [Example 143, 1-(4-(2-aminophenylcarbamoyl)benzyl)-N-(2-hydroxyethyl)-1H-pyrazole-4-carboxamide] | 50 to 100 nM |
| Cc1c2c(F)cccc2nn1Cc1ccc(C(=O)Nc2ccccc2N)cc1 [Example 55, N-(2-aminophenyl)-4-((4-fluoro-3-methyl-2H-indazol-2-yl)methyl)benzamide] | 50 to 100 nM |
| CCNC(=O)c1cnn(Cc2ccc(C(=O)Nc3ccccc3N)cc2)c1 [Example 135, 1-(4-(2-aminophenylcarbamoyl)benzyl)-N-ethyl-1H-pyrazole-4-carboxamide] | 50 to 100 nM |
| CCc1c2ccccc2nn1Cc1ccc(C(=O)Nc2ccccc2N)cc1 [Example 73, N-(2-aminophenyl)-4-((3-ethyl-2H-indazol-2-yl)methyl)benzamide] | 100 to 500 nM |
| Cc1ccnn1Cc1ccc(C(=O)Nc2ccccc2N)cc1 [Example 148, N-(2-aminophenyl)-4-((5-methyl-1H-pyrazol-1-yl)methyl)benzamide] | 100 to 500 nM |
| Nc1ccccc1NC(=O)c1ccc(Cn2cc(C(=O)NC3CC3)cn2)cc1 [Example 138, 1-(4-(2-aminophenylcarbamoyl)benzyl)-N-cyclopropyl-1H-pyrazole-4-carboxamide] | 50 to 100 nM |
| Nc1ccccc1NC(=O)c1ccc(Cn2nc3ccccc3c2N)cc1 [Example 88, 4-((3-amino-2H-indazol-2-yl)methyl)-N-(2-aminophenyl)benzamide] | 50 to 100 nM |
| Nc1ccccc1NC(=O)c1ccc(CNc2n[nH]c3ccccc23)cc1 [Example 30, 4-((1H-indazol-3-ylamino)methyl)-N-(2-aminophenyl)benzamide] | 50 to 100 nM |
| Cc1nn(Cc2ccc(C(=O)Nc3ccccc3N)cc2)c2cc(F)ccc12 [Example 68, N-(2-aminophenyl)-4-((6-fluoro-3-methyl-1H-indazol-1-yl)methyl)benzamide] | 50 to 100 nM |
| Cc1c2ccc(F)cc2nn1Cc1ccc(C(=O)Nc2ccccc2N)cc1 [Example 69, N-(2-aminophenyl)-4-((6-fluoro-3-methyl-2H-indazol-2-yl)methyl)benzamide] | 50 to 100 nM |
| Cc1nn(Cc2ccc(C(=O)Nc3ccccc3N)cc2)c2ccccc12 [Example 28, N-(2-Aminophenyl)-4-((3-methyl-1H-indazol-1-yl)methyl)benzamide] | 50 to 100 nM |

Now from value to molecule:

| IC50 | SMILES |
| --- | --- |
| ≤ 50 nM | Nc1ccccc1NC(=O)c1ccc(Cn2cc(C(=O)Nc3ccccc3)cn2)cc1 [Example 127, 1-(4-(2-aminophenylcarbamoyl)benzyl)-N-phenyl-1H-pyrazole-4-carboxamide] |
| 50 to 100 nM | Cc1c2cccc(F)c2nn1Cc1ccc(C(=O)Nc2ccccc2N)cc1 [Example 53, N-(2-aminophenyl)-4-((7-fluoro-3-methyl-2H-indazol-2-yl)methyl)benzamide] |
| ≤ 50 nM | Nc1ccc2c(cnn2Cc2ccc(C(=O)Nc3ccccc3N)cc2)c1 [Example 7, 4-((5-amino-1H-indazol-1-yl)methyl)-N-(2-aminophenyl)benzamide] |
| 50 to 100 nM | Nc1ccccc1NC(=O)c1ccc(Cn2ncc3ccc(F)cc32)cc1 [Example 36, N-(2-aminophenyl)-4-((6-fluoro-1H-indazol-1-yl)methyl)benzamide] |
| ≤ 50 nM | Nc1ccccc1NC(=O)c1ccc(Cn2cc(C(=O)NCc3ccccc3)cn2)cc1 [Example 128, 1-(4-(2-aminophenylcarbamoyl)benzyl)-N-benzyl-1H-pyrazole-4-carboxamide] |
| ≤ 50 nM | Nc1ccccc1NC(=O)c1ccc(Cn2cc3cc(NC(=O)c4ccccc4)ccc3n2)cc1 [Example 10, 4-((5-benzamido-2H-indazol-1-yl)methyl)-N-(2-aminophenyl)benzamide] |
| ≤ 50 nM | Nc1ccccc1NC(=O)c1ccc(Cn2ncc3cc(NC(=O)OCCN4CCOCC4)ccc32)cc1 [Example 22, 2-Morpholinoethyl 1-(4-((2-aminophenyl)carbamoyl)benzyl)-1H-indazol-5-ylcarbamate] |
| 50 to 100 nM | Cc1nn(Cc2ccc(C(=O)Nc3ccccc3N)cc2)c2cc(F)c(F)cc12 [Example 56, N-(2-aminophenyl)-4-((5,6-difluoro-3-methyl-1H-indazol-1-yl)methyl)benzamide] |
| 50 to 100 nM | Nc1ccccc1NC(=O)c1ccc(Cn2nc3ccccc3c2-c2ccccc2)cc1 [Example 77, N-(2-aminophenyl)-4-((3-phenyl-2H-indazol-2-yl)methyl)benzamide] |
| 50 to 100 nM | C[C@@H](c1ccc(C(=O)Nc2ccccc2N)cc1)n1cc2ccccc2n1 [Example 51, (S)-4-(1-(2H-indazol-2-yl)ethyl)-N-(2-aminophenyl)benzamide] |
| ≤ 50 nM | Nc1ccc(-c2ccccc2)cc1NC(=O)c1ccc(Cn2cc3cc([N+](=O)[O-])ccc3n2)cc1 [Example 17, N-(4-Amino-biphenyl-3-yl)-4-(5-nitro-indazol-2-ylmethyl)-benzamide] |
| ≤ 50 nM | COC(=O)Nc1ccc2c(cnn2Cc2ccc(C(=O)Nc3ccccc3N)cc2)c1 [Example 14, Methyl 1-(4-((2-aminophenyl)carbamoyl)benzyl)-1H-indazol-5-ylcarbamate] |
| ≤ 50 nM | CC(=O)Nc1ccc2cnn(Cc3ccc(C(=O)Nc4ccccc4N)cc3)c2c1 [Example 89, 4-((6-acetamido-1H-indazol-1-yl)methyl)-N-(2-aminophenyl)benzamide] |
| ≤ 50 nM | CC(=O)Nc1ccc2nn(Cc3ccc(C(=O)Nc4ccccc4N)cc3)cc2c1 [Example 4, 4-((5-acetamido-2H-indazol-2-yl)methyl)-N-(2-aminophenyl)benzamide] |
| ≤ 50 nM | COCCOC(=O)Nc1ccc2nn(Cc3ccc(C(=O)Nc4ccccc4N)cc3)cc2c1 [Example 11, 2-Methoxyethyl 2-(4-((2-aminophenyl)carbamoyl)benzyl)-2H-indazol-5-ylcarbamate] |
| ≤ 50 nM | Nc1ccccc1NC(=O)c1ccc(Cn2cc(C(=O)NCCN3CCNCC3)cn2)cc1 [Example 103, 1-(4-(2-aminophenylcarbamoyl)benzyl)-N-(2-(piperazin-1-yl)ethyl)-1H-pyrazole-4-carboxamide] |
| ≤ 50 nM | COc1cccc2c1cnn2Cc1ccc(C(=O)Nc2ccccc2N)cc1 [Example 85, N-(2-aminophenyl)-4-((4-methoxy-1H-indazol-1-yl)methyl)benzamide] |
| ≤ 50 nM | CCCNC(=O)c1cnn(Cc2ccc(C(=O)Nc3ccccc3N)cc2)c1 [Example 149, 1-(4-(2-aminophenylcarbamoyl)benzyl)-N-propyl-1H-pyrazole-4-carboxamide] |
| ≤ 50 nM | Nc1ccccc1NC(=O)c1ccc(Cn2cc3cc(NC(=O)OCc4ccccc4)ccc3n2)cc1 [Example 16, Benzyl 2-(4-((2-aminophenyl)carbamoyl)benzyl)-2H-indazol-5-ylcarbamate] |
| ≤ 50 nM | COCCCNC(=O)c1cnn(Cc2ccc(C(=O)Nc3ccccc3N)cc2)c1 [Example 152, 1-(4-(2-aminophenylcarbamoyl)benzyl)-N-(3-methoxypropyl)-1H-pyrazole-4-carboxamide] |
| ≤ 50 nM | COc1ccc2cn(Cc3ccc(C(=O)Nc4ccccc4N)cc3)nc2c1 [Example 59, N-(2-aminophenyl)-4-((6-methoxy-2H-indazol-2-yl)methyl)benzamide] |
| ≤ 50 nM | Nc1ccccc1NC(=O)c1ccc(Cn2cc3c(Cl)cccc3n2)cc1 [Example 43, N-(2-aminophenyl)-4-((4-chloro-2H-indazol-2-yl)methyl)benzamide] |
| ≤ 50 nM | COc1ccc2c(C)nn(Cc3ccc(C(=O)Nc4ccccc4N)cc3)c2c1 [Example 66, N-(2-aminophenyl)-4-((6-methoxy-3-methyl-1H-indazol-1-yl)methyl)benzamide] |
| ≤ 50 nM | Nc1ccccc1NC(=O)c1ccc(Cn2nc3ccc(C(F)(F)F)cc3c2N)cc1 [Example 62, 4-((3-amino-5-(trifluoromethyl)-2H-indazol-2-yl)methyl)-N-(2-aminophenyl)benzamide] |
| ≤ 50 nM | Nc1ccccc1NC(=O)c1ccc(Cn2ncc3ccccc32)cc1 [Example 1, 4-((1H-indazol-1-yl)methyl)-N-(2-aminophenyl)benzamide] |
